Results published in EP2112152A1, “Dihydropteridinones as Plk Inhibitors” (GPC Biotech AG, priority 2008, dated 2009).
Read-outs that look alike come from different tables or passages of the source.

Experiments:
[1] = tested on: Abl, Akt1, Aur A, c-Kit, c-Raf, Cdk1/CycB, Chk1, FGFR3, Flt3, Fyn, IGF1-R, INSR, Lyn, MAPK-ERK1, p38a, PAK4, PKCalpha, Ret, ROCK2, RSK 1, c-Src, TIE2, and …; assay: Selectivity panel (Proteros), 23 other kinases; format: biochemical; details: tested at 1 mM in triplicates; each of the 23 other kinases
Protocol: Selected compound of the present invention were tested in a standard selectivity panel including Plk1 and 23 other kinases (Proteros biostructures GmbH, Martinsried/Munich, Germany), under conditions of non-disclosure, non-dissemination and non-use.
In brief, compounds 1, 13, 14, and 25 (see Table 1) were tested at 1 mM in triplicates against Plk1 as well as against Abl, Akt1, Aur A, c-Kit, c-Raf, Cdk1/CycB, Chk1, FGFR3, Flt3, Fyn, IGF1-R, INSR, Lyn, MAPK-ERK1, p38a, PAK4, PKCalpha, Ret, ROCK2, RSK 1, c-Src, TIE2, and VEGF-R2.

HCT 116 = assay: SRB cell proliferation assay, HCT 116; format: cell-based; details: Homo sapiens
Procedure, shortened: (§1)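 Cells plated 24 h before compound, then exposed 72 h over a concentration range. TCA-fixed, sulforhodamine B-stained, bound dye read at OD520; IC50 derived from % inhibition of proliferation versus DMSO-treated cells.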

IMR-90 = assay: SRB cell proliferation assay, IMR-90; format: cell-based; details: Homo sapiens
Procedure, shortened: as §1

Plk1 = Plk1 (Homo sapiens, UniProt P53350); assay: Cellular Plk1 kinase activity: nucleophosmin (B23) Ser4 phosphorylation in HCT116 cells (MSD electrochemiluminescence); format: cell-based; set-up: host or cells: HCT116; details: 100 ng/ml nocodazole, 4 hours after compound addition, read-out: Biochemical IC50 Nucleophosmin assay
Sequence of Plk1 (P53350 whole entry, species assumed): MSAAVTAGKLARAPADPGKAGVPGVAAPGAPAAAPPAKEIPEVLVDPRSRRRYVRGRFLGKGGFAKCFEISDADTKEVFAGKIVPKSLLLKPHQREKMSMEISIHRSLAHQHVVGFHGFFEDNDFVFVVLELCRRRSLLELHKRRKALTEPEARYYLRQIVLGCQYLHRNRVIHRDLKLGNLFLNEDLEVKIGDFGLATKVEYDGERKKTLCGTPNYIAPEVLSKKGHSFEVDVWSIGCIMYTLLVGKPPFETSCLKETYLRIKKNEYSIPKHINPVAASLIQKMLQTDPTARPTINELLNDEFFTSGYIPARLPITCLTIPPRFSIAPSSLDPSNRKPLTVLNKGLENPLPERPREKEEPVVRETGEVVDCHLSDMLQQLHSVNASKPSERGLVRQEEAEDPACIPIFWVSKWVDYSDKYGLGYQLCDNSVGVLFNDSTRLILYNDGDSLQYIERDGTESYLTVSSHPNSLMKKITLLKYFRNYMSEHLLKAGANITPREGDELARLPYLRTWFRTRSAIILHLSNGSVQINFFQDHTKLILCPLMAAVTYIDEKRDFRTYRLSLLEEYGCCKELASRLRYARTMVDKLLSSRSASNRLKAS
Procedure, shortened: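 HCT116 cells arrested with 100 ng/ml nocodazole for 20 h, then compound for 4 h before lysis. Nucleophosmin Ser4 phosphorylation quantified by MSD electrochemiluminescence with cross-reactive anti-phospho-Mek1/2 antibody; % inhibition relative to cells without nocodazole, IC50 derived.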

HT-29 = assay: SRB cell proliferation assay, HT-29; format: cell-based; details: Homo sapiens
Procedure, shortened: as §1

SK-MEL-28 = assay: SRB cell proliferation assay, SK-MEL-28; format: cell-based; details: Homo sapiens, 18-Cell Line Panel, melanoma
Protocol: (§2) Cells were exposed to the test compounds at various concentrations appropriate to determine an IC50 for 72 hours. Cell proliferation was measured using the SRB assay according to Shekan et al (J Natl Cancer Inst (1990) 82, 1107-112) in order to estimate the IC50 values shown in Table 3. Briefly, cells were plated in 96 well dishes 24 hours prior to compound addition at the densities specified in Table 5.1. The assay was terminated with the addition of cold TCA to a final concentration of 10% after growth medium has been removed and the plates were incubated over night at 4°C. The plates were then washed 5 times with water and 100µl of a Sulforhodamine B solution (4%) was added to each well. The plates were then incubated for 10 minutes at room temperature before removal of unbound dye by washing with 1% acetic acid. The bound dye was solubilised with 10 mM Trizma base and the absorbance read at OD520.
(§3) Table 8.1: 18-Cell Line Panel

SW620 = assay: SRB cell proliferation assay, SW620; format: cell-based; details: Homo sapiens, SW-620; 18-Cell Line Panel; colon
Protocol: as §2, §3

A-431 = assay: SRB cell proliferation assay, A-431; format: cell-based; details: Homo sapiens, 18-Cell Line Panel, skin
Protocol: as §2, §3

SK-MEL-5 = assay: SRB cell proliferation assay, SK-MEL-5; format: cell-based; details: Homo sapiens, 18-Cell Line Panel, melanoma
Protocol: as §2, §3

ACHN = assay: SRB cell proliferation assay, ACHN; format: cell-based; details: Homo sapiens, 18-Cell Line Panel, kidney
Protocol: as §2, §3

MDA-MB-468 = assay: SRB cell proliferation assay, MDA-MB-468; format: cell-based; details: 18-Cell Line Panel; breast
Protocol: as §2, §3

MDA-MB-231 = assay: SRB cell proliferation assay, MDA-MB-231; format: cell-based; details: Homo sapiens, 18-Cell Line Panel, breast
Protocol: as §2, §3

DU 145 = assay: SRB cell proliferation assay, DU 145; format: cell-based; details: Homo sapiens, 18-Cell Line Panel, prostate, read-out: IC50 DU145
Protocol: as §2, §3

OVCAR-3 = assay: SRB cell proliferation assay, OVCAR-3; format: cell-based; details: Homo sapiens, 18-Cell Line Panel, ovary
Protocol: as §2, §3

PC-3 = assay: SRB cell proliferation assay, PC-3; format: cell-based; details: Homo sapiens, 18-Cell Line Panel, prostate
Protocol: as §2, §3

NCI-H460 = assay: SRB cell proliferation assay, NCI-H460; format: cell-based; details: Homo sapiens, 18-Cell Line Panel, NSCLC
Protocol: as §2, §3

COLO 205 = assay: SRB cell proliferation assay, COLO 205; format: cell-based; details: Homo sapiens, 18-Cell Line Panel, colon
Protocol: as §2, §3

A-375 = assay: SRB cell proliferation assay, A-375; format: cell-based; details: Homo sapiens, 18-Cell Line Panel, melanoma
Protocol: as §2, §3

HeLa = assay: SRB cell proliferation assay, HeLa; format: cell-based; details: Homo sapiens, 18-Cell Line Panel, cervix
Protocol: as §2, §3

A549 = assay: SRB cell proliferation assay, A549; format: cell-based; details: Homo sapiens, 18-Cell Line Panel, lung
Protocol: as §2, §3

[2] = HCT-116, 72 h, 72 hours, SRB assay, read-out: CELLULAR IC50 HCT 116
[3] = 72 hours, SRB assay, slow cycling cell line, read-out: CELLULAR IC50 IMR-90
[4] = HT-29, 72 h, 72 hours, SRB assay, read-out: CELLULAR IC50 HT-29

CCC1C(=O)N(C)c2cnc(Nc3ccc(C(=O)NC4CCN(C5CCN(Cc6ccccc6)CC5)CC4)cc3OC)nc2N1N(C)C (stereo not shown) [Compound 14, N-(1'-Benzyl-[1,4']bipiperidinyl-4-yl)-4-(8-dimethylamino-7-ethyl-5-methyl-6-oxo-5,6,7,8-tetrahydro-pteridin-2-ylamino)-3-methoxy-benzamide]
all other kinases were inhibited [1]: less than 10% | IC50 (HCT 116; [2]): < 1000 nM | IC50 (IMR-90; [3]): > 1000 nM | IC50 (Plk1): < 100 nM | IC50 (HT-29; [4]): < 1000 nM

CCC1C(=O)N(C)c2cnc(Nc3ccc(C(=O)NC4CCN(C)CC4)cc3OC)nc2N1C1CCCC1 (stereo not shown) [BI 2536, reference compound]
IC50 (SK-MEL-28): < 1000 nM | IC50 (HCT 116; HCT-116, 18-Cell Line Panel, colon, read-out: IC50 HCT116): < 1000 nM | IC50 (SW620): < 1000 nM | IC50 (A-431): < 1000 nM | IC50 (IMR-90; 18-Cell Line Panel, lung, read-out: IC50 IMR-90): > 1000 nM | IC50 (SK-MEL-5): < 1000 nM | IC50 (ACHN): < 1000 nM | IC50 MDA-MB-468 (MDA-MB-468): plateau at ∼50% | IC50 (MDA-MB-231): < 1000 nM | IC50 (DU 145): < 1000 nM | IC50 (HT-29; HT-29, 18-Cell Line Panel, colon, read-out: IC50 HT-29): < 1000 nM | IC50 (OVCAR-3): < 1000 nM | IC50 (PC-3): < 1000 nM | IC50 (NCI-H460): < 1000 nM | IC50 (COLO 205): < 1000 nM | IC50 (A-375): < 1000 nM | IC50 (HeLa): < 1000 nM | IC50 (A549): < 1000 nM

CCC1C(=O)N(C)c2cnc(Nc3ccc(C(=O)NC4CCN(C)CC4)cc3OC)nc2N1N(C)CC (stereo not shown) [Compound 25, 4-[7-Ethyl-8-(ethyl-methyl-amino)-5-methyl-6-oxo-5,6,7,8-tetrahydro-pteridin-2-ylamino]-3-methoxy-N-(1-methyl-piperidin-4-yl)-benzamide]
all other kinases were inhibited [1]: less than 10% | IC50 (HCT 116; [2]): < 1000 nM | IC50 (IMR-90; [3]): > 1000 nM | IC50 (Plk1): < 100 nM | IC50 (HT-29; [4]): < 1000 nM
